Data from patent US12371454B2, “Cyclic peptide compound having Kras inhibitory action” (priority 2019, dated 2025).
Positions of bridges follow the written chain, without caps; N, C: chain ends. Non-standard residues stand in square brackets, D forms with d. Residues, ends and D or L forms follow the SMILES beside them. *: point of attachment. hPhe(3-Cl-4-CF3) = N[C@@H](CCc1ccc(C(F)(F)F)c(Cl)c1)C(=O)O; hPhe(3-F,4-CF3) = N[C@@H](CCc1ccc(C(F)(F)F)c(F)c1)C(=O)O; hPhe(4-CF3) = N[C@@H](CCc1ccc(C(F)(F)F)cc1)C(=O)O; NMePhe(4-Me) = CN[C@@H](Cc1ccc(C)cc1)C(=O)O; NMeNle(6-CHF2) = CN[C@@H](CCCCC(F)F)C(=O)O; NMeGly(cPent) = CN[C@H](C(=O)O)C1CCCC1; NMeCha = CN[C@@H](CC1CCCCC1)C(=O)O; NMeD = CN[C@@H](CC(=O)O)C(=O)O; CH2CONHtBu = CC(C)(C)NC(=O)C*; NMeL = CN[C@@H](CC(C)C)C(=O)O; NMeV = CN[C@H](C(=O)O)C(C)C; d(β3hA) = C[C@@H](N)CC(=O)O; NMeAbu = CC[C@H](NC)C(=O)O; NMeS = CN[C@@H](CO)C(=O)O; NMeA = CN[C@@H](C)C(=O)O; Nle = CCCC[C@H](N)C(=O)O; Piperidide = C1CCN(*)CC1; Pyrrolidide = C1CCN(*)C1; dNMeA = CN[C@H](C)C(=O)O; Ac5c = NC1(C(=O)O)CCCC1; Aze = O=C(O)[C@@H]1CCN1; Abu = CC[C@H](N)C(=O)O; Ac4c = NC1(C(=O)O)CCC1; CH2CMe2OH = CC(C)(O)C*; Aib = CC(C)(N)C(=O)O; Isopentyl = CC(C)CC*; NEtG = CCNCC(=O)O; Sar = CNCC(=O)O

molecular target: T1, Kras and SOS1 (biotin-tagged human Kras loaded with GDP, His-tagged human SOS1) (Homo sapiens, UniProt P01116, G12D); experiment: Protein-protein interaction inhibition between Kras and SOS1 (KrasGl2D-SOS PPI) using AlphaScreen; assay type: binding; conditions: AlphaScreen; biotin-tagged human Kras loaded with GDP, His-tagged human SOS1; read-out: KRAS G12D-SOS PPI IC50
T1 construct: made in house; host or cells: E. coli (stated for Kras only)
In short: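 Binding between SOS1 and Kras is detected as bead-proximity luminescence: illuminate Ni-conjugated donors (680 nm), collect 520-620 nm emission from streptavidin-conjugated acceptors; Kras carries biotin and GDP loaded after purification, SOS1 carries a His tag.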

T1 sequence (P01116 1-188 isoform P01116-2 G12D): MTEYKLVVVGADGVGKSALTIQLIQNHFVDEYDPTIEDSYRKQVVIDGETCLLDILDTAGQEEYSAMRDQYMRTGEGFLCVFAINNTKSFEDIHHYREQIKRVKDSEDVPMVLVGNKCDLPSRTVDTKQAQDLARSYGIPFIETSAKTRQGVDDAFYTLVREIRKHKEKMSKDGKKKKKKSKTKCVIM

SMILES	IC50 [µM]
CC[C@H](C)[C@@H]1NC(=O)[C@H](CC(C)C)N(C)C(=O)C[C@@H](C(=O)N2CCCCC2)N(C)C(=O)[C@H](CC(C)C)N(C)C(=O)C(C)(C)NC(=O)[C@H](CC(C)C)N(C)C(=O)[C@H](CCc2ccc(C(F)(F)F)c(F)c2)NC(=O)CN(C)C(=O)[C@H](CCCCC(F)F)N(C)C(=O)CN(C)C(=O)CN(C)C1=O [Compound 1456] ([NMeL]I[Sar][Sar][NMeNle(6-CHF2)][Sar][hPhe(3-F,4-CF3)][NMeL][Aib][NMeL][NMeD]-Piperidide; lactam N-11)	0.012
CC[C@@H]1NC(=O)[C@H]([C@@H](C)CC)NC(=O)[C@H](CC(C)C)N(C)C(=O)C[C@@H](C)NC(=O)[C@H](C(C)C)N(C)C(=O)C2(CCCC2)NC(=O)[C@@H]2CCCN2C(=O)[C@H](CCc2ccc(C(F)(F)F)c(Cl)c2)NC(=O)CN(C)C(=O)[C@H](CC2CCCCC2)N(C)C(=O)CN(C)C1=O [Compound 1459] (cyclo([Abu][Sar][NMeCha][Sar][hPhe(3-Cl-4-CF3)]P[Ac5c][NMeV][d(β3hA)][NMeL]I))	0.29
CC[C@H](C)[C@@H]1NC(=O)[C@H](C)N(C)C(=O)C[C@@H](C)NC(=O)[C@H](C2CCCC2)N(C)C(=O)C2(CCCC2)NC(=O)[C@@H]2CCCN2C(=O)[C@H](CCc2ccc(C(F)(F)F)c(Cl)c2)NC(=O)[C@@H](C)N(C)C(=O)[C@H](Cc2ccc(C)cc2)N(C)C(=O)CN(C)C(=O)CN(C)C1=O [Compound 1465] (cyclo([Ac5c][NMeGly(cPent)][d(β3hA)][NMeA]I[Sar][Sar][NMePhe(4-Me)][dNMeA][hPhe(3-Cl-4-CF3)]P))	0.051
CC[C@H](C)[C@@H]1NC(=O)[C@H](CC(C)C)N(C)C(=O)C[C@@H](C)NC(=O)[C@H](CC(C)C)N(C)C(=O)C(C)(C)NC(=O)[C@H](COCC(=O)NC(C)(C)C)N(C)C(=O)[C@H](CCc2ccc(C(F)(F)F)c(Cl)c2)NC(=O)CN(C)C(=O)[C@H](COCCC(C)C)N(C)C(=O)CN(C)C(=O)CN(C)C1=O [Compound 1467] (cyclo([Aib][NMeL][d(β3hA)][NMeL]I[Sar][Sar][NMeS](Isopentyl)[Sar][hPhe(3-Cl-4-CF3)][NMeS](CH2CONHtBu)))	0.12
CC[C@H](C)[C@@H]1NC(=O)[C@H](CC(C)C)N(C)C(=O)C[C@@H](C)NC(=O)[C@H](CC)N(C)C(=O)C2(CCCC2)NC(=O)[C@@H]2CCCN2C(=O)[C@H](CCc2ccc(C(F)(F)F)c(F)c2)NC(=O)CN(C)C(=O)[C@H](CC2CCCCC2)N(C)C(=O)CN(C)C(=O)CN(C)C1=O [Compound 1469] (cyclo([Ac5c][NMeAbu][d(β3hA)][NMeL]I[Sar][Sar][NMeCha][Sar][hPhe(3-F,4-CF3)]P))	0.23
CC[C@H](C)[C@@H]1NC(=O)[C@H](CC(C)C)N(C)C(=O)C[C@@H](C)NC(=O)[C@H](CC(C)C)N(C)C(=O)C(C)(C)NC(=O)[C@H](COCC(C)(C)O)N(C)C(=O)[C@H](CCc2ccc(C(F)(F)F)c(Cl)c2)NC(=O)CN(C)C(=O)[C@H](COCCC(C)C)N(C)C(=O)[C@@H]2CCN2C(=O)CN(CC)C1=O [Compound 1472] (cyclo([Aib][NMeL][d(β3hA)][NMeL]I[NEtG][Aze][NMeS](Isopentyl)[Sar][hPhe(3-Cl-4-CF3)][NMeS](CH2CMe2OH)))	0.067
CC[C@H](C)[C@@H]1NC(=O)[C@H](C)N(C)C(=O)C[C@@H](C)NC(=O)[C@H](C2CCCC2)N(C)C(=O)C2(CCCC2)NC(=O)[C@@H]2CCCN2C(=O)[C@H](CCc2ccc(C(F)(F)F)c(Cl)c2)NC(=O)CN(C)C(=O)[C@H](CC2CCCCC2)N(C)C(=O)CN(C)C(=O)CN(C)C1=O [Compound 1478] (cyclo([Ac5c][NMeGly(cPent)][d(β3hA)][NMeA]I[Sar][Sar][NMeCha][Sar][hPhe(3-Cl-4-CF3)]P))	0.003
CC[C@H](C)[C@@H]1NC(=O)[C@H](C)N(C)C(=O)C[C@@H](C)NC(=O)[C@H](C2CCCC2)N(C)C(=O)C2(CCCC2)NC(=O)[C@@H]2CCCN2C(=O)[C@H](CCc2ccc(C(F)(F)F)c(Cl)c2)NC(=O)[C@H]2CCCN2C(=O)[C@H](CC2CCCCC2)N(C)C(=O)[C@@H]2CCN2C(=O)CN(C)C1=O [Compound 1479] (cyclo([Ac5c][NMeGly(cPent)][d(β3hA)][NMeA]I[Sar][Aze][NMeCha][dP][hPhe(3-Cl-4-CF3)]P))	0.12
CC[C@H](C)[C@@H]1NC(=O)[C@H](CC(C)C)N(C)C(=O)C[C@@H](C(=O)N2CCCCC2)N(C)C(=O)[C@H](CC(C)C)N(C)C(=O)C(C)(C)NC(=O)[C@H](COCC(=O)NC(C)(C)C)N(C)C(=O)[C@H](CCc2ccc(C(F)(F)F)c(Cl)c2)NC(=O)CN(C)C(=O)[C@H](COCCC(C)C)N(C)C(=O)CN(C)C(=O)CN(C)C1=O [Compound 1480] ([NMeL]I[Sar][Sar][NMeS](Isopentyl)[Sar][hPhe(3-Cl-4-CF3)][NMeS](CH2CONHtBu)[Aib][NMeL][NMeD]-Piperidide; lactam N-11)	0.0089
CC[C@H](C)[C@@H]1NC(=O)[C@H](CC(C)C)N(C)C(=O)C[C@@H](C)NC(=O)[C@H](CC(C)C)N(C)C(=O)C(C)(C)NC(=O)[C@H](COCC(C)(C)O)N(C)C(=O)[C@H](CCc2ccc(C(F)(F)F)c(Cl)c2)NC(=O)CN(C)C(=O)[C@H](COCCC(C)C)N(C)C(=O)CN(CC)C(=O)CN(C)C1=O [Compound 1484] (cyclo([Aib][NMeL][d(β3hA)][NMeL]I[Sar][NEtG][NMeS](Isopentyl)[Sar][hPhe(3-Cl-4-CF3)][NMeS](CH2CMe2OH)))	0.19
CC[C@H](C)[C@@H]1NC(=O)[C@H](CC(C)C)N(C)C(=O)C[C@@H](C)NC(=O)[C@H](C2CCCC2)N(C)C(=O)C2(CCCC2)NC(=O)[C@@H]2CCCN2C(=O)[C@H](CCc2ccc(C(F)(F)F)c(Cl)c2)NC(=O)[C@H]2CCCN2C(=O)[C@H](Cc2ccc(C)cc2)N(C)C(=O)CN(C)C(=O)CN(C)C1=O [Compound 1487] (cyclo([Ac5c][NMeGly(cPent)][d(β3hA)][NMeL]I[Sar][Sar][NMePhe(4-Me)][dP][hPhe(3-Cl-4-CF3)]P))	0.34
CC[C@H](C)[C@@H]1NC(=O)[C@H](CC(C)C)N(C)C(=O)C[C@@H](C)NC(=O)[C@H](C2CCCC2)N(C)C(=O)C2(CCCC2)NC(=O)[C@@H]2CCCN2C(=O)[C@H](CCc2ccc(C(F)(F)F)c(Cl)c2)NC(=O)[C@H]2CCCN2C(=O)[C@H](Cc2ccc(C)cc2)N(C)C(=O)[C@@H]2CCN2C(=O)CN(C)C1=O [Compound 1488] (cyclo([Ac5c][NMeGly(cPent)][d(β3hA)][NMeL]I[Sar][Aze][NMePhe(4-Me)][dP][hPhe(3-Cl-4-CF3)]P))	0.26
CC[C@H](C)[C@@H]1NC(=O)[C@H](CC(C)C)N(C)C(=O)C[C@@H](C(=O)N2CCCC2)NC(=O)[C@H](CC(C)C)N(C)C(=O)C2(CCCC2)NC(=O)[C@@H]2CCCN2C(=O)[C@H](CCc2ccc(C(F)(F)F)c(F)c2)NC(=O)CN(C)C(=O)[C@H](CC2CCCCC2)N(C)C(=O)CN(C)C(=O)CN(C)C1=O [Compound 1489] ([NMeL]I[Sar][Sar][NMeCha][Sar][hPhe(3-F,4-CF3)]P[Ac5c][NMeL]D-Pyrrolidide; lactam N-11)	0.018
CCCC[C@@H]1NC(=O)[C@H](CC(C)C)N(C)C(=O)C[C@@H](C)NC(=O)[C@H](CC(C)C)N(C)C(=O)C2(CCCC2)NC(=O)[C@@H]2CCCN2C(=O)[C@H](CCc2ccc(C(F)(F)F)c(F)c2)NC(=O)CN(C)C(=O)[C@H](CC2CCCCC2)N(C)C(=O)CN(C)C(=O)CN(C)C1=O [Compound 1490] (cyclo([Ac5c][NMeL][d(β3hA)][NMeL][Nle][Sar][Sar][NMeCha][Sar][hPhe(3-F,4-CF3)]P))	0.32
CC(C)C[C@H]1C(=O)N[C@@H](C(C)C)C(=O)N(C)CC(=O)N(C)CC(=O)N(C)[C@@H](CC2CCCCC2)C(=O)N(C)CC(=O)N[C@@H](CCc2ccc(C(F)(F)F)c(F)c2)C(=O)N2CCC[C@H]2C(=O)NC2(CCCC2)C(=O)N(C)[C@@H](CC(C)C)C(=O)N[C@H](C)CC(=O)N1C [Compound 1493] (cyclo([Ac5c][NMeL][d(β3hA)][NMeL]V[Sar][Sar][NMeCha][Sar][hPhe(3-F,4-CF3)]P))	0.1
CC[C@H](C)[C@@H]1NC(=O)[C@H](C)N(C)C(=O)C[C@@H](C)NC(=O)[C@H](C2CCCC2)N(C)C(=O)C2(CCCC2)NC(=O)[C@@H]2CCCN2C(=O)[C@H](CCc2ccc(C(F)(F)F)c(Cl)c2)NC(=O)[C@H]2CCCN2C(=O)[C@H](Cc2ccc(C)cc2)N(C)C(=O)[C@@H]2CCN2C(=O)CN(C)C1=O [Compound 1494] (cyclo([Ac5c][NMeGly(cPent)][d(β3hA)][NMeA]I[Sar][Aze][NMePhe(4-Me)][dP][hPhe(3-Cl-4-CF3)]P))	0.14
CC[C@H](C)[C@@H]1NC(=O)[C@H](CC(C)C)N(C)C(=O)C[C@@H](C(=O)N2CCCCC2)N(C)C(=O)[C@H](CC(C)C)N(C)C(=O)C(C)(C)NC(=O)[C@H](COCC(=O)NC(C)(C)C)N(C)C(=O)[C@H](CCc2ccc(C(F)(F)F)cc2)NC(=O)CN(C)C(=O)[C@H](COCCC(C)C)N(C)C(=O)CN(C)C(=O)CN(C)C1=O [Compound 1502] ([NMeL]I[Sar][Sar][NMeS](Isopentyl)[Sar][hPhe(4-CF3)][NMeS](CH2CONHtBu)[Aib][NMeL][NMeD]-Piperidide; lactam N-11)	0.024
CC[C@H](C)[C@@H]1NC(=O)[C@H](CC(C)C)N(C)C(=O)C[C@@H](C)NC(=O)[C@H](CC(C)C)N(C)C(=O)C2(CCCC2)NC(=O)[C@@H]2CCCN2C(=O)[C@H](CCc2ccc(C(F)(F)F)c(Cl)c2)NC(=O)CN(C)C(=O)[C@H](CC2CCCCC2)N(C)C(=O)CN(C)C(=O)CN(C)C1=O [Compound 1503] (cyclo([Ac5c][NMeL][d(β3hA)][NMeL]I[Sar][Sar][NMeCha][Sar][hPhe(3-Cl-4-CF3)]P))	0.016
CC[C@H](C)[C@@H]1NC(=O)[C@H](C)N(C)C(=O)C[C@@H](C)NC(=O)[C@H](C2CCCC2)N(C)C(=O)C2(CCC2)NC(=O)[C@@H]2CCCN2C(=O)[C@H](CCc2ccc(C(F)(F)F)c(Cl)c2)NC(=O)CN(C)C(=O)[C@H](CC2CCCCC2)N(C)C(=O)CN(C)C(=O)CN(C)C1=O [Compound 1506] (cyclo([Ac4c][NMeGly(cPent)][d(β3hA)][NMeA]I[Sar][Sar][NMeCha][Sar][hPhe(3-Cl-4-CF3)]P))	0.0029
